One series can be described thus: in vitro. The note with it: human.
The test system of series [1] is HCV replicon (Genotype 1b). Put plainly: Luciferase genotype 1b replicon potency assay. The note with it: Hepatitis C virus, GETYPE1B, read-out: IC50 μM, HCV genotype 1b luciferase replicon, Renilla luciferase reporter. For orientation: Replicon systems follow genome replication, usually without infectious particles.

A word on the IC50: it is the concentration that inhibits the measured activity by half.

Molecule `COc1nc(N)nc2c1ncn2C1O[C@H](COP(=O)(N[C@@H](CCSC)C(=O)O[C@@H](C)c2ccccc2)Oc2cccc3ccccc23)[C@@H](O)[C@@]1(C)O` (stereo partly drawn) [Example 59, (2S)-((S)-1-phenylethyl) 2-((((2R,3R,4R)-5-(2-amino-6-methoxy-9H-purin-9-yl)-3,4-dihydroxy-4-methyltetrahydrofuran-2-yl)methoxy)(naphthalen-1-yloxy)phosphorylamino)-4-(methylthio)butanoate] yielded a CC50 in the series “in vitro” of 30 µM. The IC50 in series [1] stood at 0.32 µM.

In the series “in vitro”, `COc1nc(N)nc2c1ncn2C1O[C@H](COP(=O)(N[C@@H](C)C(=O)OCCC(C)(C)C)Oc2cccc3ccccc23)[C@@H](O)[C@@]1(C)O` (stereo partly drawn) [Example 18, (2S)-3,3-dimethylbutyl 2-((((2R,3R,4R)-5-(2-amino-6-methoxy-9H-purin-9-yl)-3,4-dihydroxy-4-methyltetrahydrofuran-2-yl)methoxy)(naphthalen-1-yloxy)phosphorylamino)propanoate] yielded a CC50 of 7.6 µM. Besides, the IC50 in series [1] was determined as 0.013 µM.

Regarding `COc1nc(N)nc2c1ncn2C1O[C@H](COP(=O)(N[C@@H](C)C(=O)OCC(C)(C)C)Oc2cccc3ncccc23)[C@@H](O)[C@@]1(C)O` (stereo partly drawn) [Example 31, (2S)-neopentyl 2-((((2R,3R,4R)-5-(2-amino-6-methoxy-9H-purin-9-yl)-3,4-dihydroxy-4-methyltetrahydrofuran-2-yl)methoxy)(quinolin-5-yloxy)phosphorylamino)propanoate], the CC50 in “in vitro” is > 100 µM. Further, the IC50 in series [1] is 0.19 µM.

In “in vitro”, `COc1nc(N)nc2c1ncn2C1O[C@H](COP(=O)(N[C@H](C(=O)OCC2CC2)C(C)C)Oc2cccc3ccccc23)[C@@H](O)[C@@]1(C)O` (stereo partly drawn) [Example 43, (2S)-cyclopropylmethyl 2-((((2R,3R,4R)-5-(2-amino-6-methoxy-9H-purin-9-yl)-3,4-dihydroxy-4-methyltetrahydrofuran-2-yl)methoxy) (naphthalen-1-yloxy)phosphorylamino)-3-methylbutanoate] registered a CC50 of 6 µM. In series [1], the IC50 amounted to 0.18 µM.

As to `COc1nc(N)nc2c1ncn2C1O[C@H](COP(=O)(N[C@@H](C(=O)OCC(C)(C)C)c2ccccc2)Oc2cccc3ccccc23)[C@@H](O)[C@@]1(C)O` (stereo partly drawn) [Example 70, (2R)-neopentyl 2-((((2R,3R,4R)-5-(2-amino-6-methoxy-9H-purin-9-yl)-3,4-dihydroxy-4-methyltetrahydrofuran-2-yl)methoxy)(naphthalen-1-yloxy)phosphorylamino)-2-phenylacetate], in “in vitro”, the CC50 came out at 38 µM. Besides, the half-inhibitory concentration (IC50) in series [1] worked out at 0.077 µM.

The molecule `COc1nc(N)nc2c1ncn2C1O[C@H](COP(=O)(N[C@@H](C)C(=O)OCc2ccc(F)cc2F)Oc2cccc3ncccc23)[C@@H](O)[C@@]1(C)O` (stereo partly drawn) [Example 30, (2S)-2,4-difluorobenzyl 2-((((2R,3R,4R)-5-(2-amino-6-methoxy-9H-purin-9-yl)-3,4-dihydroxy-4-methyltetrahydrofuran-2-yl)methoxy)(quinolin-5-yloxy)phosphorylamino)propanoate] showed a CC50 in the series “in vitro” of 110 µM. The IC50 in series [1] worked out at 0.13 µM.

For the molecule `COc1nc(N)nc2c1ncn2C1O[C@H](CO[P@](=O)(N[C@@H](C)C(=O)OCC(C)(C)C)Oc2cccc3ccccc23)[C@@H](O)[C@@]1(C)O` (single isomer, unassigned) [Example 22], the CC50 in “in vitro” was determined as 6 µM. Also, the IC50 in series [1] came out at 0.019 µM.

On to `COc1nc(N)nc2c1ncn2C1O[C@H](COP(=O)(N[C@H](C(=O)O[C@@H](C)c2ccc(Br)cc2)C(C)C)Oc2cccc3ccccc23)[C@@H](O)[C@@]1(C)O` (stereo partly drawn) [Example 39, (2S)-((S)-1-(4-bromophenyl)ethyl) 2-((((2R,3R,4R)-5-(2-amino-6-methoxy-9H-purin-9-yl)-3,4-dihydroxy-4-methyltetrahydrofuran-2-yl)methoxy)(naphthalen-1-yloxy)phosphorylamino)-3-methylbutanoate], for which, in the series “in vitro”, the CC50 is 0.9 µM. Also, in series [1], the 50% inhibitory concentration (IC50) amounted to 2.2 µM.

Turning to `COc1nc(N)nc2c1ncn2C1O[C@H](COP(=O)(N[C@H](C)C(=O)OCC(C)(C)C)Oc2cccc3ccccc23)[C@@H](O)[C@@]1(C)O` (some centres unmarked) [Example 57], the CC50 in “in vitro” stood at 51 µM. Moreover, the IC50 in series [1] turned out to be 0.24 µM.

In turn, `CNc1nc(N)nc2c1ncn2C1O[C@H](COP(=O)(N[C@@H](C)C(=O)O[C@@H](C)c2ccccc2)Oc2cccc3ccccc23)[C@@H](O)[C@@]1(C)O` (stereo partly drawn) [Example 82, (2S)-((S)-1-phenylethyl) 2-((((2R,3R,4R)-5-(2-amino-6-(methylamino)-9H -purin-9-yl)-3,4-dihydroxy-4-methyltetrahydrofuran-2-yl)methoxy) (naphthalen-1-yloxy)phosphorylamino)propanoate] showed a CC50 in “in vitro” of 54 µM. In series [1], the IC50 amounted to 0.11 µM.

On to `C[C@H](NP(=O)(OC[C@H]1OC(n2cnc3c(NCCc4ccccc4)nc(N)nc32)[C@](C)(O)[C@@H]1O)Oc1cccc2ccccc12)C(=O)OCC(C)(C)C` (stereo partly drawn) [Example 87, (2S)-neopentyl 2-((((2R,3R,4R)-5-(2-amino-6-(phenethylamino)-9H-purin-9-yl)-3,4-dihydroxy-4-methyltetrahydrofuran-2-yl)methoxy)(naphthalen-1-yloxy)phosphorylamino)propanoate], for which, in “in vitro”, the CC50 is 42 µM. Moreover, the IC50 in series [1] was found to be 0.27 µM.

Take `COc1nc(N)nc2c1ncn2C1O[C@H](COP(=O)(N[C@H](C(=O)OCc2ccc(F)cc2F)C(C)C)Oc2cccc3ccccc23)[C@@H](O)[C@@]1(C)O` (some centres unmarked) [Example 37]: the CC50 in the series “in vitro” came to 16 µM. For the same molecule, in series [1], the IC50 worked out at 0.043 µM.

In turn, `COc1nc(N)nc2c1ncn2C1O[C@H](COP(=O)(N[C@@H](C)C(=O)OC2Cc3ccccc3C2)Oc2cccc3ccccc23)[C@@H](O)[C@@]1(C)O` (stereo partly drawn) [Example 16, (2S)-2,3-dihydro-1H-inden-2-yl 2-((((2R,3R,4R)-5-(2-amino-6-methoxy-9H-purin-9-yl)-3,4-dihydroxy-4-methyltetrahydrofuran-2-yl)methoxy) (naphthalen-1-yloxy)phosphorylamino)propanoate] registered a CC50 in the series “in vitro” of 11 µM. Besides, the IC50 in series [1] stood at 0.027 µM.

In “in vitro”, `COC(=O)[C@@H](NP(=O)(OC[C@H]1OC(n2cnc3c(OC)nc(N)nc32)[C@](C)(O)[C@@H]1O)Oc1cccc2ccccc12)C(C)C` (stereo partly drawn) [Example 41, (2S)-methyl 2-((((2R,3R,4R)-5-(2-amino-6-methoxy-9H-purin-9-yl)-3,4-dihydroxy-4-methyltetrahydrofuran-2-yl)methoxy)(naphthalen-1-yloxy)phosphorylamino)-3-methylbutanoate] came in with a CC50 of 22 µM. Further, the IC50 in series [1] was 0.38 µM.

In the series “in vitro”, `COc1nc(N)nc2c1ncn2C1O[C@H](COP(=O)(N[C@@H](C)C(=O)OCC(C)(C)C)Oc2cccc3ccccc23)C[C@@]1(C)O` (stereo partly drawn) [Example 97, (2S)-neopentyl 2-((((2S,4R)-5-(2-amino-6-methoxy-9H-purin-9-yl)-4-hydroxy-4-methyltetrahydrofuran-2-yl)methoxy)(naphthalen-1-yloxy)phosphorylamino)propanoate] had a CC50 of 44 µM. Moreover, the IC50 in series [1] was > 10 µM.

In “in vitro”, `COc1nc(N)nc2c1ncn2C1O[C@H](COP(=O)(N[C@H](C(=O)OC2CCC2)C(C)C)Oc2cccc3ccccc23)[C@@H](O)[C@@]1(C)O` (stereo partly drawn) [Example 44, (2S)-cyclobutyl 2-((((2R,3R,4R)-5-(2-amino-6-methoxy-9H-purin-9-yl)-3,4-dihydroxy-4-methyltetrahydrofuran-2-yl)methoxy)(naphthalen-1-yloxy)phosphorylamino)-3-methylbutanoate] showed a CC50 of 64 µM. Moreover, the IC50 in series [1] was found to be 0.39 µM.

The molecule `CCOc1nc(N)nc2c1ncn2C1O[C@H](COP(=O)(N[C@@H](C)C(=O)OC2CCOCC2)Oc2cccc3ccccc23)[C@@H](O)[C@@]1(C)O` (stereo partly drawn) [Example 78, (2S)-tetrahydro-2H-pyran-4-yl 2-((((2R,3R,4R)-5-(2-amino-6-ethoxy-9H-purin-9-yl)-3,4-dihydroxy-4-methyltetrahydrofuran-2-yl)methoxy)(naphthalen-1-yloxy)phosphorylamino)propanoate] came in with a CC50 in the series “in vitro” of 47 µM. In series [1], the IC50 worked out at 0.059 µM.

Consider `COc1nc(N)nc2c1ncn2C1O[C@H](COP(=O)(N[C@@H](C)C(=O)OC2CCCCC2)Oc2cccc3ccccc23)C[C@@]1(C)O` (stereo partly drawn) [Example 98, (2S)-cyclohexyl 2-((((2S,4R)-5-(2-amino-6-methoxy-9H-purin-9-yl)-4-hydroxy-4-methyltetrahydrofuran-2-yl)methoxy)(naphthalen-1-yloxy)phosphorylamino)propanoate], for which, in the series “in vitro”, the CC50 amounted to 20 µM. Further, the IC50 in series [1] was > 10 µM.

As for `COc1nc(N)nc2c1ncn2C1O[C@H](COP(=O)(N[C@H](C(=O)OCc2ccccc2)C(C)C)Oc2cccc3ccccc23)C[C@@]1(C)O` (stereo partly drawn) [Example 99, benzyl (2S)-benzyl 2-((((2S,4R)-5-(2-amino-6-methoxy-9H-purin-9-yl)-4-hydroxy-4-methyltetrahydrofuran-2-yl)methoxy)(naphthalen-1-yloxy)phosphorylamino)-3-methylbutanoate], the CC50 in the series “in vitro” was determined as 22 µM. The IC50 in series [1] was > 10 µM.

In the case of `COc1nc(N)nc2c1ncn2C1O[C@H](COP(=O)(N[C@@H](C(=O)OC2CCCCC2)c2ccccc2)Oc2cccc3ccccc23)[C@@H](O)[C@@]1(C)O` (stereo partly drawn) [Example 71, (2R)-cyclohexyl 2-((((2R,3R,4R)-5-(2-amino-6-methoxy-9H-purin-9-yl)-3,4-dihydroxy-4-methyltetrahydrofuran-2-yl)methoxy)(naphthalen-1-yloxy)phosphorylamino)-2-phenylacetate], in “in vitro”, the CC50 was determined as 26 µM. Moreover, in series [1], the IC50 was determined as 2.5 µM.

In the series “in vitro”, `COc1nc(N)nc2c1ncn2C1O[C@H](COP(=O)(N[C@H](C(=O)OCC(C)(C)C)C(C)C)Oc2cc(C(C)(C)C)cc3ccc(C(C)(C)C)cc23)[C@@H](O)[C@@]1(C)O` (some centres unmarked) [Example 56] had a CC50 of 13 µM. Moreover, the IC50 in series [1] was 2.1 µM.

Turning to `CCOc1nc(N)nc2c1ncn2C1O[C@H](COP(=O)(N[C@@H](C)C(=O)OCc2ccc(F)cc2F)Oc2cccc3ccccc23)[C@@H](O)[C@@]1(C)O` (stereo partly drawn) [Example 74, (2S)-2,4-difluorobenzyl 2-((((2R,3R,4R)-5-(2-amino-6-ethoxy-9H-purin-9-yl)-3,4-dihydroxy-4-methyltetrahydrofuran-2-yl)methoxy)(naphthalen-1-yloxy)phosphorylamino)propanoate], the CC50 in “in vitro” worked out at 17 µM. In addition, in series [1], the IC50 came out at 0.034 µM.

Source of the values: US8759318B2, “Phosphoramidate derivatives of guanosine nucleoside compounds for treatment of viral infections” (Inhibitex, Inc., priority 2009, dated 2014).
